Read-outs that look alike come from different tables or passages of the source.
How the values were obtained:
[1] = PFAS levels in serum samples of airport employees (LC/MS/MS)
In short: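 Serum from airport employees, drawn after contaminated drinking-water exposure ended, up to five monthly rounds, all reanalyzed in one batch. 25 μL serum precipitated with acetonitrile/methanol plus labeled internal standards; LC/MS/MS on BEH C18 with ammonium acetate/methanol gradient, calibrants prepared in FBS.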

[2] = design: method as in Zhang et al. 2015; conditions: ref Zhang et al. 2015, cited from earlier work
[3] = Individual serum elimination rate and half-life (linear regression per employee); conditions: individual estimate; for half-life: human, serum, oral, HL (half-life)
In short: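 Log-transformed serum PFAS concentrations regressed on days since clean bottled water supply, per employee, assuming one-compartment first-order elimination. Individual k taken as −β (negative slope); half-life as ln2/k for each PFAS. No half-life calculated when β was positive.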

[4] = 1st sampling (September 2018), count 17
[5] = 2nd sampling (October 2018), count 17
[6] = 3rd sampling (November, 2018), count 17
[7] = 4th sampling (December 2018), count 16
[8] = 5th sampling (January 2019), count 16
[9] = first serum samples, all 26 airport employees
[10] = median of first serum samples, all 26 airport employees

SMILES: O=C(O)C(F)(F)C(F)(F)C(F)(F)C(F)(F)C(F)(F)C(F)(F)C(F)(F)F [PFOA, perfluorooctanoic acid]
- Serum PFAS level, 25 percentile [1, 4]: 8.7
- Serum PFAS level, 75 percentile [1, 4]: 16
- Serum PFAS level, Max [1, 4]: 31
- Serum PFAS level, Median [1, 4]: 13
- Serum PFAS level, Min [1, 4]: 5.0
- Serum PFAS level, 25 percentile [1, 5]: 8.3
- Serum PFAS level, 75 percentile [1, 5]: 14
- Serum PFAS level, Max [1, 5]: 28
- Serum PFAS level, Median [1, 5]: 11
- Serum PFAS level, Min [1, 5]: 4.1
- Serum PFAS level, 25 percentile [1, 6]: 7.9
- Serum PFAS level, 75 percentile [1, 6]: 14
- Serum PFAS level, Max [1, 6]: 28
- Serum PFAS level, Median [1, 6]: 11
- Serum PFAS level, Min [1, 6]: 4.6
- Serum PFAS level, 25 percentile [1, 7]: 7.5
- Serum PFAS level, 75 percentile [1, 7]: 13
- Serum PFAS level, Max [1, 7]: 27
- Serum PFAS level, Median [1, 7]: 10
- Serum PFAS level, Min [1, 7]: 4.3
- Serum PFAS level, 25 percentile [1, 8]: 8.0
- Serum PFAS level, 75 percentile [1, 8]: 14
- Serum PFAS level, Max [1, 8]: 27
- Serum PFAS level, Median [1, 8]: 10
- Serum PFAS level, Min [1, 8]: 4.4
- Serum level in the first samples, median (range) ([1]; all 26 airport employees): 9.1 (2.9–31) ng/mL
- PFAS in first serum sample, median (range) ([1]; employees participated in first blood sampling and repeated blood and urine sampling, N=17): 13 (5.0–31) ng/mL
- PFAS in first serum sample, median (range) ([1]; employees participated in first blood sampling only, N=9, 11-14 d after end of exposure): 6.5 (2.9–11) ng/mL
- Initial serum PFAS level, max ([1]; females (N=7)): 20 ng/mL
- Initial serum PFAS level, median ([1]; females (N=7)): 6.7 ng/mL
- Initial serum PFAS level, min ([1]; females (N=7)): 5.0 ng/mL
- Relative composition of PFAS in serum, molar concentration basis [1, 9]: 8.1%
- Relative composition of PFAS in serum, weight basis [1, 9]: 8.2%
- Initial serum PFAS level, Max ([1]; males (N=19)): 31 ng/mL
- Initial serum PFAS level, Min ([1]; males (N=19)): 2.9 ng/mL
- Initial serum PFAS level, median ([1]; males (N=19)): 11 ng/mL
- Serum concentration, molar basis [1, 10]: 0.022
- Serum concentration, weight basis [1, 10]: 9.1
- Serum level, median (range) ([1]; second to fifth samplings, 17 airport employees): 10 (4.1–28) ng/mL
- Urine/serum ratio ([2]; nonpregnant women): 0.0028
- Urine/serum ratio ([2]; pregnant women): 0.0011
- half-life ([3]; subject 1, 5 samples): 877 days
- half-life ([3]; subject 2, 5 samples): 1060 days
- half-life ([3]; subject 3, 5 samples): 438 days
- half-life ([3]; subject 4, 5 samples): 840 days
- half-life ([3]; subject 5, 5 samples): 804 days
- half-life ([3]; subject 6, 4 samples): 1060 days
- half-life ([3]; subject 7, 5 samples): 584 days
- half-life ([3]; subject 9, 5 samples): 694 days
- half-life ([3]; subject 10, 5 samples): 767 days
- half-life ([3]; subject 11, 5 samples): 548 days
- half-life ([3]; subject 12, 5 samples): 365 days
- half-life ([3]; subject 13, 5 samples): 584 days
- half-life ([3]; subject 14, 4 samples): 584 days
- half-life ([3]; subject 15, 5 samples): 402 days
- half-life ([3]; subject 16, 5 samples): 986 days
- half-life ([3]; subject 17, 5 samples): 438 days
- Elimination rate ([3]; subject 1, 5 samples): 0.3 yearly
- Elimination rate ([3]; subject 2, 5 samples): 0.2 yearly
- Elimination rate ([3]; subject 3, 5 samples): 0.6 yearly
- Elimination rate ([3]; subject 4, 5 samples): 0.3 yearly
- Elimination rate ([3]; subject 5, 5 samples): 0.3 yearly
- Elimination rate ([3]; subject 6, 4 samples): 0.2 yearly
- Elimination rate ([3]; subject 7, 5 samples): 0.4 yearly
- Elimination rate ([3]; subject 8, 5 samples): 0.007 yearly
- Elimination rate ([3]; subject 9, 5 samples): 0.4 yearly
- Elimination rate ([3]; subject 10, 5 samples): 0.3 yearly
- Elimination rate ([3]; subject 11, 5 samples): 0.5 yearly
- Elimination rate ([3]; subject 12, 5 samples): 0.7 yearly
- Elimination rate ([3]; subject 13, 5 samples): 0.4 yearly
- Elimination rate ([3]; subject 14, 4 samples): 0.4 yearly
- Elimination rate ([3]; subject 15, 5 samples): 0.6 yearly
- Elimination rate ([3]; subject 16, 5 samples): 0.3 yearly
- Elimination rate ([3]; subject 17, 5 samples): 0.6 yearly
